# Active and inactive are the calls of the source. Rule as the data show it, for most assays here: actives have a measured EC50 and inactives only a lower limit.
# Columns and labels:
# [1] = target: T1, Heat shock factor protein 1 (Mus musculus, UniProt P38532); assay: inhibition of MG132-induced HSE-luciferase signal, confirmation, cell-based, NIH3T3, luminescence, dose retest (AID 2382); type: functional;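 also: NIH3T3 fibroblasts with HSF1-driven luciferase reporter stressed by proteasome inhibitor MG132; luminescence from HSF1-driven luciferase expression after 8 hours of MG132 stress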
# T1 sequence (P38532 whole entry): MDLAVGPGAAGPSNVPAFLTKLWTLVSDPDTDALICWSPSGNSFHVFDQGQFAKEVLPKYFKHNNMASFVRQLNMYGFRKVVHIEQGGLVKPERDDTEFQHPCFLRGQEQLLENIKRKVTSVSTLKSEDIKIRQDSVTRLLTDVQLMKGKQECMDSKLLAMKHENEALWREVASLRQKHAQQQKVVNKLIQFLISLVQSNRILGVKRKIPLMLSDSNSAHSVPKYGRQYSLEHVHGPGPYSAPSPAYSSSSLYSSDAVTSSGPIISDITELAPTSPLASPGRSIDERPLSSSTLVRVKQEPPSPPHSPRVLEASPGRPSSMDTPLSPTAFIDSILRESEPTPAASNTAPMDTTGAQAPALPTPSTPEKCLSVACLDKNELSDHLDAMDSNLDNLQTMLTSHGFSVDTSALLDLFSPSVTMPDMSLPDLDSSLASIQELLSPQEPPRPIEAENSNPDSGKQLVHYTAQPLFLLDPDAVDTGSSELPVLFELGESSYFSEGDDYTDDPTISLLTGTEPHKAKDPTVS
# [2] = inhibitors of SNCA 5'UTR-driven reporter translation, confirmation, H4 neuroglioma cells, luminescence (AID 1988); type: functional, cell-based
# [3] = Luminescence Cell-Based Dose Response HTS to Identify Inhibitors of 5'UTR Stem-Loop Driven Prion Protein mRNA Translation in H4 Neuroglioblastoma Cells. [Related pubchem assays: 1827 (Project Summary), 1813 (Primary HTS)]; type: functional
# [4] = inhibitors of firefly luciferase expression or activity, dose response, H4 neuroglioma cells, luminescence (AID 1990); type: functional, cell-based
# [5] = target: T2, Corticotropin-releasing factor receptor 2/Corticotropin-releasing factor-binding protein (Homo sapiens, UniProt P24387+Q13324); assay: activators of CRF receptor 2 with binding protein – uHTS hits, confirmation (AID 602473); type: functional; conditions: read-out: EC50_Mean
# T2 sequence (Q13324 whole entry): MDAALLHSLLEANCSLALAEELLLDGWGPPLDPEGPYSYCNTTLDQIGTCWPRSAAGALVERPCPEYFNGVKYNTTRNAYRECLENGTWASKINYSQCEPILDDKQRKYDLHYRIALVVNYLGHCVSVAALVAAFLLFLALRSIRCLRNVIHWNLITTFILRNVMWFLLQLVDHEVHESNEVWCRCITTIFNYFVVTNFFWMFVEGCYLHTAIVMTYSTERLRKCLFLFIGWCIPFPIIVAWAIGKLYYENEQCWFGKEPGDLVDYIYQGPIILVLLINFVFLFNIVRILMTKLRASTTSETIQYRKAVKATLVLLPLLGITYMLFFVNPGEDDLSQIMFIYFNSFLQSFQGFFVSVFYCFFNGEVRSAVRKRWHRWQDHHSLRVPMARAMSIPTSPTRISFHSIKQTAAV
# T2 sequence (P24387 whole entry): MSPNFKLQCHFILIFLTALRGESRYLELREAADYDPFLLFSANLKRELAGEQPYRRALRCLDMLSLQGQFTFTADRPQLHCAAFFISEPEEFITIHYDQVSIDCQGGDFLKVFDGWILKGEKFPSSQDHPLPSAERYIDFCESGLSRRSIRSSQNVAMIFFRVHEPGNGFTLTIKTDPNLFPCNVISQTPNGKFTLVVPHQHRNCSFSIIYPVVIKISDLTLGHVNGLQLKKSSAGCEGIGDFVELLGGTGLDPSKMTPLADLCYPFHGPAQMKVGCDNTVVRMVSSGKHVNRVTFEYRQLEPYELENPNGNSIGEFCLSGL
# [6] = target: T2, Corticotropin-releasing factor receptor 2/Corticotropin-releasing factor-binding protein; assay: Dose Response confirmation of uHTS hits for small molecule antagonists of the CRF-binding protein and CRF-R2 receptor complex.; type: functional; conditions: read-out: IC50_Mean
# H4 = assay: Luminescence Cell-Based Dose Response HTS to Identify Activators of 5'UTR Stem-Loop Driven Prion Protein mRNA Translation in H4 Neuroglioblastoma Cells. [Related pubchem assays: 1829 (Project Summary), 1814 (Primary HTS)]; type: functional; conditions: Homo sapiens
# [7] = Luminescence Cell-Based Dose Confirmation HTS to Identify Activators of 5'UTR Stem-Loop Driven Alpha-Synuclein mRNA Translation in H4 Neuroglioblastoma Cells. [Related pubchem assays: 1829 (Project Summary), 1814 (Primary HTS)]; type: functional
# [8] = Luminescence Cell-Based Dose Response HTS to Identify Activators of Luciferase Translation or Activity in H4 […] Cells. [Related pubchem assays: 1829 (Project Summary), 1814 (Primary HTS)]; type: functional
# Cytochrome P450 1A2 = target: T3, Cytochrome P450 1A2 (Homo sapiens, UniProt P05177);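 also: PubChem cytochrome P450 panel assay, CYP1A2 panel member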
# T3 sequence (P05177 whole entry): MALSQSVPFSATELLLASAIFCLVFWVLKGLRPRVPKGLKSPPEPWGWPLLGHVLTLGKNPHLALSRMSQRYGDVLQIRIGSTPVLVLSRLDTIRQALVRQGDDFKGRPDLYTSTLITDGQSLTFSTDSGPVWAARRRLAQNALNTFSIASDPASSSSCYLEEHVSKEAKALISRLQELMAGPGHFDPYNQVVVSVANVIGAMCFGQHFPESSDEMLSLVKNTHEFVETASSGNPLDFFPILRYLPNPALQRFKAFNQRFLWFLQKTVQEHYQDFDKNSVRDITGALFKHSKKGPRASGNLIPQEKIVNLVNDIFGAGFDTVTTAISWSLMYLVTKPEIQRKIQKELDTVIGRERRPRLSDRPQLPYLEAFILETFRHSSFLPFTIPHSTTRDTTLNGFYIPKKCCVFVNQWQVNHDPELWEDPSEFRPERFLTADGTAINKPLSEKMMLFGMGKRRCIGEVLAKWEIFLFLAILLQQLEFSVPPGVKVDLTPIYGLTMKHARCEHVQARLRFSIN
smiles,measurement,setting,value
CC1CCN(c2nc3ccc(C(=O)N4CCN(Cc5ccc6c(c5)OCO6)CC4)cc3s2)CC1,EC50,[1],16.5 µM (active)
NS(=O)(=O)c1cccc(NC(=O)CNC(=O)CC23CC4CC(CC(C4)C2)C3)c1,EC50,[1],> 195 µM (not active)
Cc1c(Cc2ccccc2)sc(N)c1C(N)=O,EC50,[2],> 120 µM (not active)
same,EC50,[3],> 120 µM (not active)
same,EC50,[4],22.7 µM (active)
COc1ccc(CN=C(S)Nc2ccc(-c3ccccc3)cc2)cc1,EC50,[2],> 120 µM (not active)
same,EC50,[3],> 120 µM (not active)
same,EC50,[4],> 120 µM (not active)
Cc1cc(C)cc(N(CC(=O)Nc2ccc(Br)cc2)S(=O)(=O)c2c(C)nc(O)nc2O)c1,EC50,[1],> 195 µM (not active)
CCc1cc(C)cc(OCCNC(=O)c2cncc(Br)c2)c1,EC50,[1],> 195 µM (not active)
CCN(c1ccc(NS(=O)(=O)c2cc(Cl)ccc2Cl)cc1)C(C)C,EC50,[5],> 53 µM (inactive)
same,IC50,[6],> 47.1 µM (inactive)
C=C(C)CSc1nc2cc(Cl)c[nH]c-2n1,EC50,H4,84.5 µM (active)
same,EC50,[7],19 µM (active)
same,EC50,[8],50.8 µM (active)
Oc1ccc(Br)cn1,EC50,[2],> 120 µM (not active)
same,EC50,[3],> 120 µM (not active)
same,EC50,[4],> 120 µM (not active)
COc1ccc(CN2C(=O)[C@@H]3Cc4c([nH]c5ccccc45)C(C)(C)N3C2=O)cc1,EC50,[2],> 120 µM (not active)
same,EC50,[3],> 120 µM (not active)
same,EC50,[4],> 120 µM (not active)
CCCNC(=O)COc1ccc2c(=O)c(Oc3ccccc3F)coc2c1,EC50,[1],> 195 µM (not active)
Cc1cc(C)n(C(CC(=O)O)C(=O)O)n1 (stereo unspecified),EC50,[1],> 195 µM (not active)
CN(c1ccccc1C(=O)Nc1cccc([N+](=O)[O-])c1)S(C)(=O)=O,EC50,[2],> 120 µM (not active)
same,EC50,[3],16.8 µM (active)
same,EC50,[4],> 120 µM (not active)
CCOc1cc2c(cc1OCC)C(c1ccc(OC)cc1)N(c1ccccc1)C(=O)C2 (stereo unspecified),EC50,[1],> 195 µM (not active)
COc1cccc(OCc2cc(C(=O)N(C)Cc3nccn3C)no2)c1,EC50,H4,> 120 µM (not active)
same,EC50,[7],9.91 µM (active)
same,EC50,[8],15.6 µM (active)
CCC(=O)Nc1cc(Cl)ccc1N1CCN(C(=O)CC)CC1,EC50,[5],> 53 µM (inactive)
same,IC50,[6],> 47.1 µM (inactive)
COc1ccc(N=C(S)Nc2ccc(F)cc2)c(OC)c1,EC50,[1],> 195 µM (not active)
CCOC(=O)c1c(C(F)(F)C(F)(F)C(F)(F)C(F)(F)F)n[nH]c1C,EC50,[5],> 53 µM (inactive)
same,IC50,[6],> 47.1 µM (inactive)
CC(C)c1ccc(NC(S)=NC2CCCCCC2)cc1,EC50,H4,22 µM (active)
same,EC50,[7],0.166 µM (active)
same,EC50,[8],14.3 µM (active)
CCCOc1ccc(C(=O)NC(=S)Nc2nc3ccccc3s2)cc1,EC50,H4,48.3 µM (active)
same,EC50,[7],20.9 µM (active)
same,EC50,[8],22.5 µM (active)
CCOC(=O)c1cc(C#N)c(N2CCN(c3ccccn3)CC2)nc1-c1ccccc1,EC50,[5],> 53 µM (inactive)
same,IC50,[6],> 47.1 µM (inactive)
COc1ccc(CCN2C(=O)CC(Cc3ccccc3)C2=O)cc1OC (stereo unspecified),EC50,[5],> 53 µM (inactive)
same,IC50,[6],> 47.1 µM (inactive)
c1ccc(C2CSc3ccccc3N2)cc1 (stereo unspecified),EC50,H4,22.5 µM (active)
same,EC50,[7],16.9 µM (active)
same,EC50,[8],27.5 µM (active)
COc1ccc(C(=O)Cc2cnn(-c3ccccc3)c2)c(O)c1,EC50,H4,> 120 µM (not active)
same,EC50,[7],0.135 µM (active)
same,EC50,[8],1.58 µM (active)
COc1ccc(-c2nc3n(n2)C(c2ccccc2)C2=C(O)CCCC2=N3)cc1OC (stereo unspecified),EC50,[1],> 195 µM (not active)
CC(=O)Nc1ccc(S(=O)(=O)N2CCC(c3nnc(-c4ccc(C)cc4)o3)CC2)cc1,EC50,[5],> 53 µM (inactive)
same,IC50,[6],> 47.1 µM (inactive)
Cc1cccc2cc(CN(Cc3ccccc3)C(S)=NCCCN(C)C)c(O)nc12,EC50,[1],> 195 µM (not active)
COc1ccc(NC(=O)c2sc3nc(N4CCCC4)c4c(c3c2N)CC(C)(C)OC4)c(OC)c1,EC50,[2],14.7 µM (active)
same,EC50,[3],31.3 µM (active)
same,EC50,[4],35.2 µM (active)
Cc1ccnc(N2CCCC(C(=O)NCc3cccs3)C2)n1 (stereo unspecified),EC50,[1],> 195 µM (not active)
CC(=O)Nc1cc(C(=O)N2CCC3(CC2)OCCO3)ccc1S(=O)(=O)c1ccc(C)cc1,EC50,[5],> 53 µM (inactive)
same,IC50,[6],> 47.1 µM (inactive)
CNC(=O)[C@H](C)[C@@H]1C[C@@]1(C)[C@@H](NC(=O)OCc1ccccc1)c1ccccc1,AC50,Cytochrome P450 1A2,20 µM (inconclusive)
Cc1ccc2c(c1)cc1c(O)nncn12,EC50,H4,24.7 µM (active)
same,EC50,[7],15.6 µM (active)
same,EC50,[8],9.57 µM (active)
CCOc1ccc(NC(=O)C(C)NS(=O)(=O)c2ccc(NC(C)=O)cc2)cc1 (stereo unspecified),EC50,[1],> 195 µM (not active)
CCOC(=O)c1cccnc1NC(=O)c1ccncc1,EC50,[1],> 195 µM (not active)
Cc1c(C(=O)NCC2CCCO2)sc2nc(-c3ccc(F)cc3)cn12 (stereo unspecified),EC50,[5],> 53 µM (inactive)
same,IC50,[6],> 47.1 µM (inactive)
O=C(NCc1cccs1)c1ccc(N2CCCCC2)nc1,EC50,H4,31.5 µM (active)
same,EC50,[7],> 120 µM (not active)
same,EC50,[8],30.9 µM (active)
Cc1cc(C)nc(SCCC(=O)Nc2ccccc2C)n1,EC50,[5],> 53 µM (inactive)
same,IC50,[6],> 47.1 µM (inactive)
Cc1ccccc1NC(=O)c1ccc2c(c1)OCCO2,EC50,[1],> 195 µM (not active)
O=C(NC(C(=O)c1ccccc1)n1ccc(=O)[nH]c1=O)c1ccccc1 (stereo unspecified),EC50,H4,16.4 µM (active)
same,EC50,[7],7.39 µM (active)
same,EC50,[8],11.9 µM (active)
O=C(CCSc1ccccc1)N1CCN(c2ccccc2)CC1,EC50,H4,28.4 µM (active)
same,EC50,[7],> 120 µM (not active)
same,EC50,[8],15.5 µM (active)
Cc1ccnc(N2CCCC(C(=O)NC3CC3)C2)n1 (stereo unspecified),EC50,[5],> 53 µM (inactive)
same,IC50,[6],> 47.1 µM (inactive)
C/C(=N\NS(=O)(=O)c1ccccc1)c1ccc2c(c1)OCCO2,EC50,[1],> 195 µM (not active)
O=S1(=O)CC/C(=N\Nc2ccc(F)cc2)c2ccsc21,EC50,[1],> 195 µM (not active)
O=C(Cc1ccccc1)N/N=C/c1ccc2c(c1)OCO2,EC50,H4,> 120 µM (not active)
same,EC50,[7],1.52 µM (active)
same,EC50,[8],103 µM (active)
O=C(Nc1ccc(Br)cc1)C1Cc2ccccc2O/C1=N\O (stereo unspecified),EC50,H4,9.69 µM (active)
same,EC50,[7],11.3 µM (active)
same,EC50,[8],7.85 µM (active)
